# Reference: patent US20190375842A1, “CHECK POINT INHIBITION IN ORGAN FIBROSIS” (VANDERBILT UNIVERSITY, priority 2018, published 2019)
# Tested on: human lung fibroblasts/fibrocytes (HLF) co-cultured with sarcoidosis CD4+ T cells
# Experiment: CD4+ T cell and human lung fibroblast (HLF) co-culture, collagen I production by flow cytometry
# Type: cell-based
# Details: after exposure to STATTIC
# Description: The detection of increased collagen-1 production following co-culture of sarcoidosis PD-1+CD4+ cells supported an investigation of the effects of PD-1 pathway blockade on HLF collagen I production. Purified sarcoidosis CD4+ T cells at a final concentration of 2×10^6/mL were cultured overnight in the presence of α-PD-1, α-PD-L1 and α-PD-L2. HLFs were added the following day at a 1:10 ratio (HLF:T cell). […] Similar results were also observed for collagen I producing fibrocytes (CD45^+) that were cultured in the presence of sarcoidosis CD4+ T cells. There was a significant decline in collagen I production of 22% following PD-1 pathway blockade (p=0.0002) (FIG. 7E). Once again, these differences were only observed when HLF were cultured with sorted CD4+ T cells from sarcoidosis patients that had high baseline PD-1 expression on their CD4+ T cells (p=0.0002) (FIG. 7F) but not from patients with low PD-1 (p=0.10) (FIG. 7G).
# LN2 frozen PBMC were thawed and readied for CD4+ T cell purification as aforementioned. 4-5×10^5 CD4+ T cells were plated on a 96-well plate at a final concentration of 2×10^6/mL in RPMI 1640-supplemented medium and then allowed to rest at 37° C. in 5% atmospheric CO2 for 2 hours prior to PD-1 pathway blockade or STATS inhibition using STATTIC. […]
compound,measurement,setting,value
O=[N+]([O-])c1ccc2c(c1)S(=O)(=O)C=C2 [STATTIC],collagen 1 production by fibrocytes,sarcoidosis PD-1+CD4+ T cells co-cultured with fibrocytes,significant reduction
same,collagen 1 production by fibroblasts,sarcoidosis PD-1+CD4+ T cells co-cultured with human lung fibroblasts,significant reduction
